Values of other authors in patent US20140080712A1, “COMPOSITIONS AND METHODS FOR DOUBLE ENCAPSULATION OF A VOLATILE COMPOUND” (AgroFresh Inc., priority 2012, published 2014).

Tested on: ethylene
Conditions: freshness management

Compound: CC1=CC1 [Sample 1-MCP, 1-methylcyclopropene]
- concentration effective in blocking ethylene: ~100 ppb
